Assay [1] addresses T1, HCV NS3/4A protease complex, BMS strain (genotype 1a) (Hepatitis C virus genotype 1a, UniProt P27958, C1454S/C1711G).
T1 construct: recombinant HCV NS3/4A protease complex (amino'acids 1027 to 1711); inferred from the pET21b vector and Ni-NTA purification; made in house; host or cells: Escherichia coli BL21 (DE3), pET21b
Kind of assay: Recombinant HCV NS3/4A protease complex FRET peptide assay (BMS strain). Conditions: IC50, HCV NS3/4A protease FRET assay in vitro; IC50 ranges. The format is biochemical. The text has this:
The purpose of this in vitro assay was to measure the inhibition of HCV NS3 protease complexes, derived from the BMS, H77C or J4L6S strains, as described below, by compounds of the present invention. This assay provides an indication of how effective compounds of the present invention would be in inhibiting HCV proteolytic activity.
Serum from an HCV-infected patient was obtained from Dr. T. Wright, San Francisco Hospital. An engineered full-length cDNA (compliment deoxyribonucleic acid) template of the HCV genome (BMS strain) was constructed from DNA fragments obtained by reverse transcription-PCR (RT-PCR) of serum RNA (ribonucleic acid) and using primers selected on the basis of homology between other genotype 1a strains. From the determination of the entire genome sequence, a genotype 1a was assigned to the HCV isolate according to the classification of Simmonds et al. (See P Simmonds, K A Rose, S Graham, S W Chan, F McOmish, B C Dow, E A Follett, P L Yap and H Marsden, J. Clin. Microbiol., 31 (6), 1493-1503 (1993)). […] The infectious clones, H77C (1a genotype) and J4L6S (1b genotype) were obtained from R. Purcell (N1H) and the sequences are published in Genbank (AAB67036, see Yanagi, M., Purcell, R. H., Emerson, S. U. and Bukh, J. Proc. Natl. Acad. Sci. U.S.A. 94 (16), 8738-8743 (1997); AF054247, see Yanagi, M., St Claire, M., Shapiro, M., Emerson, S. U., Purcell, R. H. and Bukh, J, Virology 244 (1), 161-172. (1998)).
The BMS, H77C and J4L6S strains were used for production of recombinant NS3/4A protease complexes. DNA encoding the recombinant HCV NS3/4A protease complex (amino'acids 1027 to 1711) for these strains were manipulated as described by P. Gallinari et al. (see Gallinari P, Paolini C, Brennan D, Nardi C, Steinkuhler C, De Francesco R. Biochemistry. 38 (17):5620-32, (1999)). Briefly, a three-lysine solubilizing tail was added at the 3′-end of the NS4A coding region. The cysteine in the P1 position of the NS4A-NS4B cleavage site (amino acid 1711) was changed to a glycine to avoid the proteolytic cleavage of the lysine tag. Furthermore, a cysteine to serine mutation was introduced by PCR at amino acid position 1454 to prevent the autolytic cleavage in the NS3 helicase domain. The variant DNA fragment was cloned in the pET21b bacterial expression vector (Novagen)and the NS3/4A complex was expressed in Escherichia. coli strain BL21 (DE3) (Invitrogen) following the protocol described by P. Gallinari et al. (see Gallinari P, Brennan D, Nardi C, Brunetti M, Tomei L, Steinkuhler C, De Francesco R., J. Virol. 72 (8):6758-69 (1998)) with modifications. Briefly, NS3/4A expression was induced with 0.5 mM Isopropyl β-D-1-thiogalactopyranoside (IPTG) for 22 hr at 20° C. A typical fermentation (10L) yielded approximately 80 g of wet cell paste. The cells were resuspended in lysis buffer (10 mL/g) consisting of 25 mM N-(2-Hydroxyethyl)Piperazine-N′-(2-Ethane Sulfonic acid) (HEPES), pH 7.5, 20% glycerol, 500 mM Sodium Chloride (NaCl), 0.5% Triton-X100, 1 ug/ml lysozyme, 5 mM Magnesium Chloride (MgCl2), 1 ug/ml Dnasel, 5 mM β-Mercaptoethanol (OME), Protease inhibitor-Ethylenediamine Tetraacetic acid (EDTA) free (Roche), homogenized and incubated for 20 mins at 4° C. The homogenate was sonicated and clarified by ultra-centrifugation at 235000 g for 1 hr at 4° C. Imidazole was added to the supernatant to a final concentration of 15 mM and the pH adjusted to 8.0. The crude protein extract was loaded on a Nickel-Nitrilotriacetic acid (Ni-NTA) column pre-equilibrated with buffer B (25 mM HEPES, pH 8.0, 20% glycerol, 500 mM NaCl, 0.5% Triton-X100, 15 mM imidazole, 5 mM βME). The sample was loaded at a flow rate of 1 mL/min. The column was washed with 15 column volumes of buffer C (same as buffer B except with 0.2% Triton-X100). The protein was eluted with 5 column volumes of buffer D (same as buffer C except with 200 mM Imidazole). […]

Assay [2] relates to HCV replicon in Huh7 cells. Kind of assay: HCV replicon cell-based assay (replicon FRET assay). The arrangement: species or system HCV strain 1B. The following applies: Hepatitis C virus, Huh-7, HCV replicon cell assay; EC50 ranges. The text has this: An HCV replicon whole cell system was established as described by Lohmann V, Korner F, Koch J, Herian U, Theilmann L, Bartenschlager R., Science 285 (5424):110-3 (1999). This system enabled us to evaluate the effects of our HCV Protease compounds on HCV RNA replication. Briefly, using the HCV strain 1B sequence described in the Lohmann paper (Assession number:AJ238799), an HCV cDNA was generated encoding the 5′ internal ribosome entry site (IRES), the neomycin resistance gene, the EMCV (encephalomyocarditis viurs)-IRES and the HCV nonstructural proteins, NS3-NS5B, and 3′ non-translated region (NTR). In vitro transcripts of the cDNA were transfected into the human hepatoma cell line, Huh7. […] Resulting cell lines were characterized for positive and negative strand RNA production and protein production over time.
Huh7 cells, constitutively expressing the HCV replicon, were grown in Dulbecco's Modified Eagle Media (DMEM) containing 10% Fetal calf serum (FCS) and 1 mg/ml G418 (Gibco-BRL). Cells were seeded the night before (1.5×10^4 cells/well) in 96-well tissue-culture sterile plates. Compound and no compound controls were prepared in DMEM containing 4% FCS, 1:100 Penicillin/Streptomysin, 1:100 L-glutamine and 5% DMSO in the dilution plate (0.5% DMSO final concentration in the assay). Compound/DMSO mixes were added to the cells and incubated for 4 days at 37° C. After 4 days, plates were rinsed thoroughly with Phosphate-Buffered Saline (PBS) (3 times 150 μl). The cells were lysed with 25 μl of a lysis assay reagent containing the FRET peptide (RET S1, as described for the in vitro enzyme assay). The lysis assay reagent was made from 5× cell Luciferase cell culture lysis reagent(Promega #E153A) diluted to 1× with distilled water, NaCl added to 150 mM final, the FRET peptide diluted to 10 μM final from a 2 mM stock in 100% DMSO. The plate was then placed into the Cytofluor 4000 instrument which had been set to 340 nm excitation/490 emission, automatic mode for 21 cycles and the plate read in a kinetic mode. EC50 determinations were carried out as described for the IC50 determinations.

Bounds are passed on as bounds.

T1 sequence (P27958 1027-1711 C1454S/C1711G, one chain of several): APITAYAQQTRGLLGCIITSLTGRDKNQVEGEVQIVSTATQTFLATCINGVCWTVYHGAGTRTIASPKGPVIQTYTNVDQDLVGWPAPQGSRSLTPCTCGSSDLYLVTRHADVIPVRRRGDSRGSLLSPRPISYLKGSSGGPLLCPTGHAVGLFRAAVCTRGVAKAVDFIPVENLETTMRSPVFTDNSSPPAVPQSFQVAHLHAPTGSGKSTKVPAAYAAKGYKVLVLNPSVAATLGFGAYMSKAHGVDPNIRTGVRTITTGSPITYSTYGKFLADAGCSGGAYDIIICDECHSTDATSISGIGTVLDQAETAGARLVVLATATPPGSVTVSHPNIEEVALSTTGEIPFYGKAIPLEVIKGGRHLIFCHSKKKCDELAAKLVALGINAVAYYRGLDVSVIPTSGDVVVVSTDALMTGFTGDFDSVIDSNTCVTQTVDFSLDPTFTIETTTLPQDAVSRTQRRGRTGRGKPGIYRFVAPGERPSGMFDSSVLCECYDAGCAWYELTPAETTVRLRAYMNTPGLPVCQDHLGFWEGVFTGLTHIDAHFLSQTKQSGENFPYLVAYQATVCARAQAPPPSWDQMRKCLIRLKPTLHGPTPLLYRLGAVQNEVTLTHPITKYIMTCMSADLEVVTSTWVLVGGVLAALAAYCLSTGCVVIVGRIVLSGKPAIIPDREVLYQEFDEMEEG

For orientation: IC50 means the midpoint of a concentration-inhibition curve. What is called EC50 is the midpoint of the concentration-response curve. A higher EC50 goes with a need for much substance. With `COc1ccc2c(O[C@@H]3C[C@H]4C(=O)N[C@]5(C(=O)NS(=O)(=O)C6CC6)C[C@H]5/C=C\CCCCC[C@H](NC(=O)OCCF)C(=O)N4C3)cc(-c3ccccc3)nc2c1` [Compound 21, (1S,4R,6S,14S,18R)-7-cis-[4-Cyclopropanesulfonylaminocarbonyl-18-(7-methoxy-2-phenylquinolin-4-yloxy)-2,15-dioxo-3,16-diazatricyclo-[14.3.0.0^4,6]nonadec-7-en-14-yl]carbamic acid 2-fluoroethyl ester], in assay [1], the IC50 is under 50 nM. In assay [2], the EC50 was under 50 nM.

For the compound `COc1ccc2c(O[C@@H]3C[C@H]4C(=O)N[C@]5(C(=O)NS(=O)(=O)C6CC6)C[C@H]5CCCCCCC[C@H](NC(=O)OCC(C)(C)C)C(=O)N4C3)cc(-c3ccccc3)nc2c1` [Compound 22, (1S,4R,6R,14S,18R)-[4-Cyclopropanesulfonylaminocarbonyl-18-(7-methoxy-2-phenylquinolin-4-yloxy)-2,15-dioxo-3,16-diazatricyclo[14.3.0.0^4,6]-nonadec-14-yl]carbamic acid 2,2-dimethylpropyl ester], in assay [1], the IC50 was under 50 nM. This compound also yielded a concentration for a half-maximal effect (EC50) in assay [2] of under 50 nM.

For `COc1ccc2c(O[C@@H]3C[C@H]4C(=O)N[C@]5(C(=O)NS(=O)(=O)C6CC6)CC5CCCCCCC[C@H](NC(=O)OC5CCOCC5)C(=O)N4C3)cc(-c3ccccc3)nc2c1` (stereo partly drawn) [Compound 23, (1S,4R,6R,14S,18R)-[4-Cyclopropanesulfonyl-aminocarbonyl-18-(7-methoxy-2-phenylquinolin-4-yloxy)-2,15-dioxo-3,16-diazatricyclo[14.3.0.0^4,6]nonadec-14-yl]carbamic acid tetrahydro[4H]pyran-4-yl ester], in assay [1], the IC50 is under 50 nM. Besides, the EC50 in assay [2] is under 50 nM.

For the compound `COc1ccc2c(O[C@@H]3C[C@H]4C(=O)N[C@]5(C(=O)NS(=O)(=O)C6CC6)CC5CCCCCC[C@H](NC(=O)CC5CC5)C(=O)N4C3)cc(-c3ccccc3)nc2c1` (stereo partly drawn) [Compound 24, (1S,4R,6R,14S,17R)-N-[4-Cyclopropanesulfonylaminocarbonyl-17-(7-methoxy-2-phenylquinolin-4-yloxy)-2,14-dioxo-3,15-diazatricyclo[13.3.0.0^4,6]-octadec-13-yl]-2-cyclopropylacetamide], the 50% inhibitory concentration (IC50) in assay [1] was under 50 nM. In assay [2], this compound had a half-maximal effective concentration (EC50) of under 50 nM.

As for `COc1ccc2c(O[C@@H]3C[C@H]4C(=O)N[C@]5(C(=O)NS(=O)(=O)C6CC6)CC5CCCCCC[C@H](NC(=O)OC5CCCC5)C(=O)N4C3)cc(-c3ccccc3)nc2c1` (stereo partly drawn) [Compound 25, (1S,4R,6R,14S,17R)-[4-Cyclopropanesulfonylaminocarbonyl-17-(7-methoxy-2-phenylquinolin-4-yloxy)-2,14-dioxo-3,15-diazatricyclo[13.3.0.0^4,6]octa-dec-13-yl]carbamic acid cyclopentyl ester], the 50% inhibitory concentration (IC50) in assay [1] is under 50 nM. Also, the half-maximal effective concentration (EC50) in assay [2] is under 50 nM.

With `COc1ccc2c(O[C@@H]3C[C@H]4C(=O)N[C@]5(C(=O)NS(=O)(=O)C6CC6)CC5CCCCCC[C@H](NC(=O)O[C@H]5CCOC5)C(=O)N4C3)cc(-c3ccccc3)nc2c1` (stereo partly drawn) [Compound 26, (1S,4R,6R,14S,17R,3′S)-[4-Cyclopropanesulfonyl-aminocarbonyl-17-(7-methoxy-2-phenylquinolin-4-yloxy)-2,14-dioxo-3,15-diazatricyclo[13.3.0.0^4,6]-octadec-13-yl]-carbamic acid tetrahydrofuran-3′-yl ester], the half-maximal inhibitory concentration (IC50) in assay [1] is under 50 nM. In assay [2], this compound displayed an EC50 of under 50 nM.

As for `COc1ccc2c(O[C@@H]3C[C@H]4C(=O)N[C@]5(C(=O)NS(=O)(=O)C6CC6)C[C@H]5/C=C\CCCCC[C@H](NC(=O)OC(C)(C)C)C(=O)N4C3)cc(-c3csc(C(C)C)n3)nc2c1` [Compound 27], the IC50 in assay [1] was under 50 nM. In addition, the EC50 in assay [2] is under 50 nM.

As for `COc1ccc2c(O[C@@H]3C[C@H]4C(=O)N[C@]5(C(=O)NS(=O)(=O)C6CC6)C[C@H]5/C=C\CCCCC[C@H](NC(=O)OC(C)(C)C)C(=O)N4C3)cc(-c3csc(NC(C)=O)n3)nc2c1` [Compound 28, (1S,4R,6S,14S,18R)-7-cis-{18-[2-(2-Acetylaminothiazol-4-yl)-7-methoxyquinolin-4-yloxy]-4-cyclopropanesulfonylaminocarbonyl-2,15-dioxo-3,16-diazatricyclo-[14.3.0.0^4,6]nonadec-7-en-14-yl}carbamic acid tert-butyl ester], the half-inhibitory concentration (IC50) in assay [1] is under 50 nM. The EC50 in assay [2] was under 50 nM.

`CC(C)(C)OC(=O)N[C@H]1CCCCC/C=C\[C@@H]2C[C@@]2(C(=O)NS(=O)(=O)C2CC2)NC(=O)[C@@H]2C[C@@H](Oc3ccnc4ccccc34)CN2C1=O` [Compound 29, (1S,4R,6S,14S,18R)-7-cis-[4-Cyclopropanesulfonylaminocarbonyl-2,15-dioxo-18-(quinolin-4-yloxy)-3,16-diazatricyclo[14.3.0.0^4,6]nonadec-7-en-14-yl]carbamic acid tert-butyl ester]: in assay [1], the concentration for half-maximal inhibition (IC50) is under 50 nM. In assay [2], this compound gave a concentration for a half-maximal effect (EC50) of under 50 nM.

On to `CC(C)(C)OC(=O)N[C@H]1CCCCC/C=C\[C@@H]2C[C@@]2(C(=O)NS(C)(=O)=O)NC(=O)[C@@H]2C[C@@H](Oc3ccnc4ccccc34)CN2C1=O` [Compound 30, (1S,4R,6S,14S,18R)-7-cis-[4-Methanesulfonylaminocarbonyl-2,15-dioxo-18-(quinolin-4-yloxy)-3,16-diazatricyclo[14.3.0.0^4,6]nonadec-7-en-14-yl]-carbamic acid tert-butyl ester], for which, in assay [1], the half-maximal inhibitory concentration (IC50) was under 50 nM. The EC50 in assay [2] was under 5000 nM.

The values above are taken from US6867185B2 (Bristol-Myers Squibb Company, priority 2001, dated 2005).
